Measurements published in article PMC12514245, “Impaired migration and lung invasion of human melanoma by a novel small molecule targeting the transmembrane domain of death receptor p75^NTR” (EMBO Molecular Medicine, 2025).
Several values for one entry are separate records, joined by “and”; a condition that tells them apart may be missing. Equal values may be shown once. Read-outs that look alike come from different tables or passages of the source.

Columns and labels:
[1] = target: T1, p75^NTR I253A TMD mutant in COS cells (Rattus norvegicus, UniProt P07174, I253A); test: Live cell homo-FRET anisotropy, I253A mutant p75NTR; type: cell-based; parameters: key to average anisotropy change, I253A: fold change vs mean of 6 pre-treatment time points (baseline ≈ 100); conditions: for average anisotropy change, I253A: 10 μM
T1 construct: COS cells expressing full length, GFP-tagged rat p75^NTR; expressed in transfected cells; host or cells: COS-7
T1 sequence (P07174 30-425 I253A): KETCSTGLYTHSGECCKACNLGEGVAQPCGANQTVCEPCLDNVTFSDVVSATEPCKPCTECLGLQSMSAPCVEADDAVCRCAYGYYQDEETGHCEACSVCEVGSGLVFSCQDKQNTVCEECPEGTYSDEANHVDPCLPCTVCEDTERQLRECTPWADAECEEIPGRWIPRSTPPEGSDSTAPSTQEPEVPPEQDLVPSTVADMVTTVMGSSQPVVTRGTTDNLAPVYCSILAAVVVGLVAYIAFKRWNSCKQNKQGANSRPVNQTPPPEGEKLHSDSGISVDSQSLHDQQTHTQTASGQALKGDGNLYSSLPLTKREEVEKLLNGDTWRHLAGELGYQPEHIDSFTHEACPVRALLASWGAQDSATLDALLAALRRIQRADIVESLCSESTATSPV
Source text: Previous real-time homo-FRET anisotropy studies by ours as well as other laboratories have shown that the intracellular death domains of p75^NTR are associated with each other (high FRET, low anisotropy state) under basal conditions (Vilar et al, [2009]; Sykes et al, [2012]), but neurotrophin binding induces transient separation of p75^NTR death domains (low FRET, high anisotropy state) manifested as oscillations in real-time anisotropy measurements (Lin et al, [2015]; Tanaka et al, [2016]; Goh et al, [2018]). COS cells expressing full length, GFP-tagged rat p75^NTR were treated with vehicle or Div17E5 and changes in anisotropy levels were recorded over time.
Anisotropy imaging in COS-7 cells that were transfected with a rat p75^NTR-EGFP* fusion construct was done as previously described (Goh, Lin et al, [2018]). EGFP* carries a […] mutation rendering monomeric EGFP. Changes in anisotropy were expressed as fold change at each time point (every 30 s) in comparison to the mean of 6 time points obtained prior to addition of treatment. Images were acquired using Nikon Ti-E based live cell epi-fluorescence microscope and MetaMorph software and analyzed using MatLab from Mathworks.

[2] = Cell viability (Presto Blue), A875 shp75; type: cell-based, human; conditions: human, A875 shp75 cells, 2 days; for viability at 2 days, 1 uM: Div17E5 1 uM; for viability at 2 days, 1.5 uM: Div17E5 1.5 uM
Protocol: To measure the cytotoxic effect of Div17E5, A875 NT or shp75 cells were seeded at 2000 cells per well (in 100 μL DMEM) in a 96-well plate and incubated for 12 h. Next, Div17E5 at various concentrations was added and incubated at 37 °C in 5% CO2 for 2 days. Following treatment, 10 μL Presto Blue® (resazurin, ThermoFIsher) was added to each well of the 96-well plate and incubated for 2 h at 37 °C in 5% CO2. Cellular fluorescence in each well was measured at 535 nm excitation and 615 nm emission using a microtiter plate reader. Data was converted into the relative cell viability (%) from the fluorescence of cells in each treatment relative to that of the DMSO control group (set as 100%).

A875 NT cells = test: Filopodia per cell (phalloidin staining), A875 NT; type: cell-based, human; conditions: for Filopodia per cell, mean of the well: EXP1 NT; for Filopodia per cell, mean of experiment: EXP1-EXP3; for Filopodia per cell, mean of three experiments: mean of EXP1-3
Protocol: For assessment of actin filaments, A875 cells were plated on glass coverslips in 24-well plate at a confluency of 3 × 10^4 cells/well. One day after plating, the cells were treated with 1 μM or 5 μM Np75-4A22 and NGF (100 ng/ml) or PBS for 24 h. Cells were fixed in 4% paraformaldehyde, permeabilized in 0.1% Triton-X-100, stained with Phalloidin-iFluor 488 (Abcam) at 1:2000 dilution and DAPI for 1 h. Coverslips were mounted and visualized in a laser confocal microscope.

[3] = type: in vivo; conditions: oral 200 mg/kg/day
[4] = N=3, read-out: Cell Viability, Mean
[5] = read-out: Cell Viability, n1-n3
[6] = 1 uM 4A22 with 100 ng/ml NGF, A875 NT
[7] = 5 uM 4A22 with 100 ng/ml NGF, A875 NT

## Oc1ccc(-c2cncc(Nc3ccc(Br)c(Cl)c3)n2)cc1 [Div17E5]
[1]; 10 µM
  real-time homo-FRET anisotropy, Ile253 to Ala mutant: blunted homo-FRET changes
[1]; 0 min after compound addition
  average anisotropy change, I253A: 101
[1]; 0.5 min after compound addition
  average anisotropy change, I253A: 97
[1]; 1 min after compound addition
  average anisotropy change, I253A: 99
[1]; 1.5 min after compound addition
  average anisotropy change, I253A: 105
[1]; 2 min after compound addition
  average anisotropy change, I253A: 103
[1]; 2.5 min after compound addition
  average anisotropy change, I253A: 100
[1]; 3 min after compound addition
  average anisotropy change, I253A: 100
[1]; 3.5 min after compound addition
  average anisotropy change, I253A: 99
[1]; 4 min after compound addition
  average anisotropy change, I253A: 102
[1]; 4.5 min after compound addition
  average anisotropy change, I253A: 95
[1]; 5 min after compound addition
  average anisotropy change, I253A: 101
[1]; 5.5 min after compound addition
  average anisotropy change, I253A: 100
[1]; 6 min after compound addition
  average anisotropy change, I253A: 103
[1]; 6.5 min after compound addition
  average anisotropy change, I253A: 91
[1]; 7 min after compound addition
  average anisotropy change, I253A: 103
[1]; 7.5 min after compound addition
  average anisotropy change, I253A: 100
[1]; 8 min after compound addition
  average anisotropy change, I253A: 96
[1]; 8.5 min after compound addition
  average anisotropy change, I253A: 103
[1]; 9 min after compound addition
  average anisotropy change, I253A: 93
[1]; 9.5 min after compound addition
  average anisotropy change, I253A: 102
[1]; 10 min after compound addition
  average anisotropy change, I253A: 101
[1]; 10.5 min after compound addition
  average anisotropy change, I253A: 97
[1]; 11 min after compound addition
  average anisotropy change, I253A: 105
[1]; 11.5 min after compound addition
  average anisotropy change, I253A: 98
[1]; 12 min after compound addition
  average anisotropy change, I253A: 97
[1]; 12.5 min after compound addition
  average anisotropy change, I253A: 99
[1]; 13 min after compound addition
  average anisotropy change, I253A: 104
[1]; 13.5 min after compound addition
  average anisotropy change, I253A: 102
[1]; 14 min after compound addition
  average anisotropy change, I253A: 96
[1]; 14.5 min after compound addition
  average anisotropy change, I253A: 104
[1]; 15 min after compound addition
  average anisotropy change, I253A: 99
[1]; -0.5 min after compound addition
  average anisotropy change, I253A: 106
[1]; -1 min after compound addition
  average anisotropy change, I253A: 94
[1]; -1.5 min after compound addition
  average anisotropy change, I253A: 101
[1]; -2 min after compound addition
  average anisotropy change, I253A: 103
[1]; -2.5 min after compound addition
  average anisotropy change, I253A: 97
[1]; -3 min after compound addition
  average anisotropy change, I253A: 99
[2]; Div17E5 0.5 uM, read-out: Cell Viability, n1-n3
  viability at 2 days, 0.5 uM: 101%
[2]; [4]
  viability at 2 days, 1 uM: 107%
  viability at 2 days, 1.5 uM: 103%
[2]; [5]
  viability at 2 days, 1 uM: 101%
  viability at 2 days, 1.5 uM: 107%

## Cc1cccc(-c2cncc(Nc3ccc(Br)c(Cl)c3Cl)n2)c1C [Np75-4A22]
A875 NT cells; 1 uM 4A22 + 100 ng/ml NGF
  Filopodia per cell, mean of the well: 24.0741 and 41.2222 and 33.1667 and 30.2857
A875 NT cells; 1 uM 4A22, A875 NT
  Filopodia per cell, mean of experiment: 30.1580 and 35.6954 and 33.9792
  Filopodia per cell, mean of three experiments: 33.2775
  Filopodia per cell, mean of well: 25.1429 and 30.1667 and 33.5 and 37.8333 and 34.4167
A875 NT cells; 1 uM 4A22, A875 NT, per image of a well
  Filopodia per cell (Filopodia / cell), single image: 35
A875 NT cells; 1 uM 4A22
  Filopodia per cell, mean of the well: 33.2292 and 40 and 23.375 and 24.0278
A875 NT cells; [6]
  Filopodia per cell, mean of experiment: 32.1872 and 28.1825 and 34.5833
  Filopodia per cell, mean of three experiments: 31.6510
  Filopodia per cell, mean of well: 24.6905 and 26.2143 and 30.7143 and 34.6667 and 32.8333 and 35 and 35.8333
A875 NT cells; 5 uM 4A22, A875 NT
  Filopodia per cell, mean of experiment: 31.8244 and 33.2924 and 31.8750
  Filopodia per cell, mean of three experiments: 32.3306
  Filopodia per cell, mean of well: 30.0714 and 40.9286 and 30.3571 and 31.8125 and 34.9167 and 27.4167 and 31.1667 and 34
A875 NT cells; 5 uM 4A22
  Filopodia per cell, mean of the well: 26.1667 and 28.75 and 43.1667 and 29.2143
A875 NT cells; [7]
  Filopodia per cell, mean of experiment: 28.5179 and 33.2679 and 34.0625
  Filopodia per cell, mean of three experiments: 31.9494
  Filopodia per cell, mean of well: 33.2976 and 34 and 40.1786 and 25.5952 and 29.75 and 31.9167 and 35.9167 and 38.6667
A875 NT cells; 1 or 5 μM
  filopodia per cell, compound alone: no effects per se
A875 NT cells; 1 or 5 μM, NGF 100 ng/ml
  NGF-induced filopodia per cell: completely abolished the effects of NGF
[3]; 21 consecutive days, females and males
  mortality, repeated dose: No mortality
[3]; 21 days, females
  treatment-related effects, repeated dose, females: mild decrease in lymphocyte cellularity and increase granulopoiesis
[3]; 21 days, males
  treatment-related effects, repeated dose, males: no treatment-related effects
